Entries after “also recorded” stand apart in the source; their conditions may differ.

The test system of experiment [1] is NMDAR. In words: Simultaneous NMDA- and AMPA-eEPSCs at −40 mV, patch-clamp, hippocampal slices. The format is cell-based, mouse. The conditions noted are these: for Effect on clioquinol-dependent increase in NMDA/AMPA ratio at −40 mV: WT and KO. The protocol:
(§1) For electrophysiological experiments, sagittal hippocampal slices (400 uM thick for extracellular, 300 uM thick for intracellular recordings) of Shank2^−/− mice (or ZnT3^−/− mice) and their wild-type littermates were prepared using a vibratome (Leica VT1200) in ice-cold dissection buffer containing (in mM) 212 sucrose, 25 NaHCO3, 5 KCl, 1.25 NaH2PO4, 0.5 CaCl2, 3.5 MgSO4, 10 D-glucose, 1.25 L-ascorbic acid, and 2 Na-pyruvate bubbled with 95% 02/5% CO2. CA3 was removed to prevent epileptiform activity. Slices were restored for 1 hour in 32° C. in a normal artificial CSF (ACSF) (In units of mM: 124 NaCl, 2.5 kCl, 1 NaH2PO4, 25 NaHCO3, 10 glucose, 2 CaC12, 2 Mg504 oxidized by 95% 02/5% CO2) For the recording, a single slice was moved to and maintained in submerged-type chamber at 28° C., continuously perfused with ACSF (2 mL/minute) saturated with 95% 02/5% CO2. Stimulation and recording pipettes were pulled from borosilicate glass capillaries (Harvard Apparatus) using a micropipette electrode puller (Narishege).
Whole-cell patch-clamp recordings of hippocampal CA1 pyramidal neurons were also made using a MultiClamp 700B amplifier (Molecular Devices) and Digidata 1440A (Molecular Devices). During whole-cell patch-clamp recordings, series resistance was monitored each sweep by measuring the peak amplitude of the capacitance currents in response to short hyperpolarizing step pulse (5 mV, 40 ms); only cells with a change in <25% were included in the analysis. For NMDA (N-Methyl-D-aspartate)/AMPA (alpha-amino-3-hydroxy-5-methylisoxazole-4-propionic acid) ratio experiments, mouse hippocampal slices at the age of postnatal day 17 to 25 were used. The recording pipettes (2.5 to 3.5 MΩ) were filled with an internal solution containing the following (in mM): 100 CsMeSO4, 10 TEA-Cl, 8 NaCl, 10 HEPES, 5 QX-314-C1, 2 Mg-ATP, 0.3 Na-GTP, 10 EGTA, with pH 7.25, 295 mOsm). CA1 pyramidal neurons were voltage-clamped at −70 mV, and EPSPs were evoked at every 15 sec. AMPAR-mediatedEPSCs were recorded at −70 mV, and 30 consecutive responses were recorded after stable baseline. After recording AMPAR-mediated EPSPs, holding potential was changed to +40 mV to record NMDA receptor-mediated EPSPs. NMDA component was measured at 60 ms after the stimulation. The NMDA/AMPA ratio was determined by dividing the mean value of 30 NMDA components of EPSPs by the mean value of 30 AMPAR-mediated EPSC peak amplitudes. […] For measuring AMPAR-mediated and NMDAR-mediated EPSCs together upon CQ treatment, pyramidal neurons were voltage-clamped at −40 mV, and EPSCs were evoked at every 15 sec. AMPAR-mediated EPSC was determined as a peak amplitude of EPSC, and NMDAR-mediated EPSC as a component at 60 ms after stimulation. NMDA/AMPA ratio at −40 mV was calculated by using both values, and monitored during the experimental process. […] Picrotoxin (100 uM) was always added to ACSF to block GABAA receptor-mediated currents.

In experiment [2] the test system is NMDAR. Put plainly: NMDA-fEPSP extracellular recordings, hippocampal slices. The format is cell-based, mouse. The conditions noted are these: for Effect on clioquinol-dependent increase in NMDAR activity (NMDA-fEPSPs): applied to hippocampal slices before clioquinol treatment. The protocol:
as §1
For extracellular recordings, mouse hippocampal slices at the age of postnatal day 21 to 35 were used. Field excitatory postsynaptic potentials (fEPSPs) were recorded in the stratum radiatum of the hippocampal CA1 region using pipettes filled with ACSF (1 MΩ). fEPSP was amplified (Multiclamp 700B, Molecular Devices), and digitized (Digidata 1440A, Molecular
Devices) for measurements. The Schaffer collateral pathway was stimulated every 20 seconds with pipettes filled with ACSF (0.3 to 0.5 MΩ). The stimulation intensity was adjusted to yield a half-maximal response, and three successive responses were averaged and expressed relative to the normalized baseline. To induce LTP, high frequency stimulation (100 Hz, 1 s) was applied after a stable baseline was acquired. […] To isolate NMDAR-mediated fEPSPs, ACSF containing 2 mM calcium, 0.1 mM magnesium, and 6,7-dinitroquinoxaline-2,3-dione (10 uM, DNQX, Tocris), which inhibits AMPAR-mediated EPSPs, were used.

Experiment [3] deals with Tbr1^+/− mice. The conditions noted are these: reported by Huang et al. 2014; cited from earlier work.

Regarding `NC(CCCP(=O)(O)O)C(=O)O` (stereo not drawn) [AP5], the “NMDA-eEPSCs at −40 mV” value in experiment [1] (D-AP5 50 uM, 10 minutes, after CQ) is given as “significantly reduced”. Take `O=C([O-])CN(CCN(CC(=O)[O-])CC(=O)[O-])CC(=O)[O-].[Ca+2].[Na+].[Na+]` [Ca-EDTA]: the “NMDAR function (NMDA-fEPSPs), substance alone” value in experiment [2] (Ca-EDTA 2 mM, during and after the treatment, WT and KO) was “did not affect NMDA-fEPSP; also recorded: has no effect on NMDAR function”. Besides, in experiment [2], the “Effect on clioquinol-dependent increase in NMDAR activity (NMDA-fEPSPs)” value is on record as “eliminated the clioquinol-dependent increase in NMDAR activity”.

As to `N[C@@H]1CONC1=O` [D-cycloserine], the “Reduction in social interaction” value in experiment [3] is “normalized”. As to `CC(C)(C)n1nc(-c2ccc(Cl)cc2)c2c(N)ncnc21` [PP2], the “Effect on clioquinol-dependent increase in NMDAR activity (NMDA-fEPSPs)” value in experiment [2] was “removed clioquinol activation of NMDAR”.

Regarding `Nc1ncnc2c1cnn2-c1ccccc1` [PP3], the “Effect on clioquinol-dependent increase in NMDAR activity (NMDA-fEPSPs)” value in experiment [2] is “failed to block the NMDAR activation”.

On to `CN(C)S(=O)(=O)c1ccc2c(c1)/C(=C/c1cc3c([nH]1)CCCC3)C(=O)N2` [SU6656], for which, in experiment [2], the “Effect on clioquinol-dependent increase in NMDAR activity (NMDA-fEPSPs)” value was “removed clioquinol activation of NMDAR”. The same measure, in the same setting: in the case of `O=C(NN=C1CCCCC1)C(=O)NN=C1CCCCC1` [cuprizone] it was “did not inhibit the clioquinol-induced increase in NMDAR activity”. For “Src (40-58): Src-inhibitory peptide with a sequence corresponding to Src amino acid residues 40-58 (KPASADGHRGPSAAFAPAA; UniProt P12931 40-58, looked up, fragment)”, the “Effect on clioquinol-dependent increase in NMDAR activity (NMDA-eEPSCs)” value in experiment [1] (peptide in the patch pipette, 0.03 mg/mL, Shank2^−/− and wild-type synapses) is “prevented clioquinol from increasing NMDAR activity”. Besides, the “Effect on clioquinol-dependent increase in NMDA/AMPA ratio at −40 mV” value in experiment [1] (peptide in the patch pipette, 0.03 mg/mL) was “blocks CQ-dependent NMDAR activation”; in experiment [1] (peptide in the patch pipette, 0.03 mg/mL, listed as Src-inhibitory peptide), “blocked”. Also, the “AMPAR function (AMPA-eEPSCs)” value in experiment [1] (peptide in the patch pipette, wild-type and Shank2^−/− synapses) is “unaffected”.

The values above are taken from patent publication US20160120858A1 (ACADEMIA SINICA, priority 2014, published 2016).
